Key:
MCF7 cells = assay: Inhibition of the proliferation of MCF7 cells (Cell Titer-Glo); format: cell-based; conditions: Homo sapiens, MCF-7 cells, 72 hours, read-out: IC50 value of inhibition effect on the proliferation of MCF7 cells
Description: The object of this experiment was to determine the inhibition effect of the compounds on the proliferation activity of MCF7 cells, and the in vitro activity of the compounds was evaluated according to the IC50 values.
MCF-7 cells (Cell Bank of Chinese Academy of Sciences typical culture preservation Committee, TChu 74) were inoculated into the MEM medium (Hyclone, SH30024.01B) containing 10% FBS (Gibco, 10099-141), 1% sodium pyruvate (Sigma, S8636), and 1% nonessential amino acids (Sigma, M7145) in a 96-well plate with a density of 40,000 cells/well, and the cells were incubated under the conditions of 37° C., and 5% CO2. The compound was prepared as a 20 mM stock solution that was later diluted to 1000× final concentration with 100% DMSO, and then diluted with 20-fold medium containing 2% FBS. After incubation for 24 hours, the medium was removed and 90 μl of the medium containing 2% FBS and 10 μl of the drug were added to each well, 10 […] of DMSO was added to the control group, and the blank group contained only 100 μl medium containing 2% FBS. The plate was gently shaken and incubated in a incubator at 37° C., 5% CO2. After 72 hours later, 50 μl of mixed Cell Titer-Glo (Promega, G7571) was added to each well. The plate was shaken until the ingredients were mixed uniformly, and placed at room temperature for 10 minutes, then the chemiluminescence signal value was determined. The inhibition effect of the compound AZD9496 at 100 nM on the proliferation of MCF-7 cells was set to 100%, the maximum inhibition rate of other compounds=(chemiluminescence signal valuenegative control−chemiluminescence signal valuecompound 100 nm)/(chemiluminescence signal valuenegative control−chemiluminescence signal valueAZD9496 100 nm)×100%, and the negative control was a well with 0.5% DMSO.
The values of the chemiluminescence signals vs the logarithmic concentrations of the compounds were plotted using Graghpad Prism to obtain the IC50 values.

ER (estrogen receptor) = biological target: T1, ER (estrogen receptor) (Homo sapiens, UniProt P03372); assay: Inhibition of the binding of estrogen (E) to estrogen receptor (ER), MCF-7/ERE-luciferase reporter cells; format: cell-based; conditions: MCF-7/ERE-luciferase cells, 0.1 nM estradiol, 24 hours, chemiluminescence; read-out: IC50 value of inhibition effect on the binding of E to ER
T1 construct: MCF-7/ERE-luciferase monoclonal cells were selected by transfection of MCF-7; host or cells: MCF-7/ERE-luciferase (only the ERE-luciferase reporter was transfected)
T1 sequence (P03372 1-595): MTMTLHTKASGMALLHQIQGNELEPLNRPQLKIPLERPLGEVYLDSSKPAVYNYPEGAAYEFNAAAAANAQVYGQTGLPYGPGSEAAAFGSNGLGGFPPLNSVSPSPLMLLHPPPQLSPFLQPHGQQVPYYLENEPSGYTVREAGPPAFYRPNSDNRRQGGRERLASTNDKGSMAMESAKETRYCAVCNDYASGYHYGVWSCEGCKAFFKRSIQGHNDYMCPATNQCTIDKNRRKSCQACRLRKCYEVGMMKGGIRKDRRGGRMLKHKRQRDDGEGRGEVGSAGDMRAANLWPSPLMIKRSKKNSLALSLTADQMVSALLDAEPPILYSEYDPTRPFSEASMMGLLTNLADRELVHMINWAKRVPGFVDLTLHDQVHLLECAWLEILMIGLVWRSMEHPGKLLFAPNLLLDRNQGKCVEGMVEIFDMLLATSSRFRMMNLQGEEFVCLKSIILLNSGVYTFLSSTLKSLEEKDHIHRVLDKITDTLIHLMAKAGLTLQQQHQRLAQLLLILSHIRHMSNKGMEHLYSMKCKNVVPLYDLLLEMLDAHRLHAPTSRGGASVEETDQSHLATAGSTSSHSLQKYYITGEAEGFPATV
Description: The compounds of the present invention have an inhibition effect on the binding of E (estrogen) to ER (estrogen receptor), thereby blocking the binding of a complex of E and ER complex to ERE (estrogen responsive element), and subsequently blocking the expression of downstream luciferase protein.
The inhibition effect of the compounds on the binding of E to ER in vitro was tested by the following method.
The object of this experiment was to determine the inhibition effect of the compounds on the binding of E to ER, and the in vitro activity of the compounds was evaluated according to the IC50 values.
ERE was cloned into the upstream of the luciferase gene, and MCF-7/ERE-luciferase monoclonal cells were selected by transfection of MCF-7 (Cell Bank of Chinese Academy of Sciences typical culture preservation Committee, TCHu74). MCF-7/ERE-luciferase cells were inoculated into the MEM medium (hyclone, SH30024.01B) containing 10% charcoal stripped FBS (Moregate, FBSF), 1% sodium pyruvate (Sigma, S8636), 1% nonessential amino acids (Sigma, M7145) and 500 μg/ml G418 in a 96-well plates with a density of 30,000 cells/well, and the cells were incubated under the conditions of 37° C., and 5% CO2. The drug was prepared as a 20 mM stock solution that was later diluted with 100% DMSO in 10 fold concentration gradient, and then diluted 20-fold with the medium DMEM. After incubation for 24 hours, the medium was removed, then 0.1 nM estradiol (Sigma, E2758) and 10 μl of the drug diluted with the medium were added to each well, and the control group was added with DMSO. The plate was gently shaken and incubated in a incubator at 37° C., 5% CO2. After 24 hours, the cell culture medium was discarded, Then, 50 μl of the prepared luciferase substrate (Promega, E6110) was added to each well, and the plate was placed in the dark at room temperature for 10-15 minutes, then the chemiluminescence signal value was determined.
The inhibition effect of the compounds of the present invention on the binding of E to ER was tested by the experiment described above. The values of the chemiluminescence signal vs the logarithmic concentrations of the compounds were plotted using Graphpad Prism, and the measured IC50 values are shown in Table 1.

IC50 (MCF7 cells)	IC50 (ER (estrogen receptor))	SMILES
1.12 nM	0.27 nM	CCn1cc(-c2ccc3c(c2)CC(C)N(c2ccc(C4CC4)cc2)C3c2ccc(/C=C/C(=O)O)cc2)cn1 [Example 13, (E)-3-(4-((1R,3R/1S,3S)-2-(4-Cyclopropylphenyl)-6-(1-ethyl-1H-pyrazol-4-yl)-3-methyl-1,2,3,4-tetrahydroisoquinolin-1-yl)phenyl)acrylic acid]
0.65 nM	3.32 nM	CCc1ccc(N2C(C)Cc3cc(-c4cnn(CC)c4)ccc3C2c2ccc(/C=C/C(=O)O)cc2)cc1 [Example 17, (E)-3-(4-((1R,3R/1S,3S)-6-(1-Ethyl-1H-pyrazol-4-yl)-2-(4-ethylphenyl)-3-methyl-1,2,3,4-tetrahydroisoquinolin-1-yl)phenyl)acrylic acid]
4.53 nM	–	CCCc1ccc(N2C(C)Cc3cc(-c4cnn(C)c4)ccc3C2c2ccc(/C=C/C(=O)O)cc2)cc1 [Example 20, (E)-3-(4-((1R,3R/1S,3S)-3-Methyl-6-(1-methyl-1H-pyrazol-4-yl)-2-(4-propylphenyl)-1,2,3,4-tetrahydroisoquinolin-1-yl)phenyl)acrylic acid]
0.57 nM	1 nM	CCn1cc(-c2ccc3c(c2)CC(C)N(c2ccc(C4CC4)cc2F)C3c2ccc(/C=C/C(=O)O)cc2)cn1 [Example 22, (E)-3-(4-((1R,3R/1S,3S)-2-(4-Cyclopropyl-2-fluorophenyl)-6-(1-ethyl-1H-pyrazol-4-yl)-3-methyl-1,2,3,4-tetrahydroisoquinolin-1-yl)phenyl)acrylic acid]
0.81 nM	0.85 nM	CCc1ccc(N2C(C)Cc3cc(-c4cnn(CC)c4)ccc3C2c2ccc(/C=C/C(=O)O)cc2)c(Cl)c1 [Example 23, (E)-3-(4-((1R,3R/1S,3S)-2-(2-Chloro-4-ethylphenyl)-6-(1-ethyl-1H-pyrazol-4-yl)-3-methyl-1,2,3,4-tetrahydroisoquinolin-1-yl)phenyl)acrylic acid]
0.9 nM	1.81 nM	CCn1cc(-c2ccc3c(c2)CC(C)N(c2ccc(C4CC4)cc2Cl)C3c2ccc(/C=C/C(=O)O)cc2)cn1 [Example 24, (E)-3-(4-((1R,3R/1S,3S)-2-(2-Chloro-4-cyclopropylphenyl)-6-(1-ethyl-1H-pyrazol-4-yl)-3-methyl-1,2,3,4-tetrahydroisoquinolin-1-yl)phenyl)acrylic acid]
0.89 nM	1.62 nM	CCn1cc(-c2ccc3c(c2)CC(C)N(c2ccc(C4CC4)cc2)C3c2ccc(/C=C/C(=O)O)cc2F)cn1 [Example 25, (E)-3-(4-((1S,3R/1R,3S)-2-(4-Cyclopropylphenyl)-6-(1-ethyl-1H-pyrazol-4-yl)-3-methyl-1,2,3,4-tetrahydroisoquinolin-1-yl)-3-fluorophenyl)acrylic acid]
–	6.76 nM	CCn1cc(-c2ccc3c(c2)CC(C)N(c2ccc(C4CC4)c(F)c2)C3c2ccc(/C=C/C(=O)O)cc2)cn1 [Example 26, (E)-3-(4-((1R,3R/1S,3S)-2-(4-Cyclopropyl-3-fluorophenyl)-6-(1-ethyl-1H-pyrazol-4-yl)-3-methyl-1,2,3,4-tetrahydroisoquinolin-1-yl)phenyl)acrylic acid]
0.31 nM	0.42 nM	CCn1cc(-c2ccc3c(c2)C[C@@H](C)N(c2ccc(C4CC4)cc2C)[C@@H]3c2ccc(/C=C/C(=O)O)cc2)cn1 [Example 28, (E)-3-(4-((1R,3R)-2-(4-Cyclopropyl-2-methylphenyl)-6-(1-ethyl-1H-pyrazol-4-yl)-3-methyl-1,2,3,4-tetrahydroisoquinolin-1-yl)phenyl)acrylic acid]
2.36 nM	1.26 nM	CC1Cc2cc(-c3cnn(C(F)F)c3)ccc2C(c2ccc(/C=C/C(=O)O)cc2)N1c1ccc(C2CC2)cc1 (centres unmarked) [Example 29]
2.7 nM	0.34 nM	CCn1cc(-c2ccc3c(c2)CC(C)N(c2ccc(C4CC4)cc2)C3c2c(F)cc(/C=C/C(=O)O)cc2F)cn1 [Example 30, (E)-3-(4-((1S,3R/1R,3S)-2-(4-Cyclopropylphenyl)-6-(1-ethyl-1H-pyrazol-4-yl)-3-methyl-1,2,3,4-tetrahydroisoquinolin-1-yl)-3,5-difluorophenyl)acrylic acid]
0.42 nM	0.74 nM	CCn1cc(-c2ccc3c(c2)C[C@@H](C)N(c2ccc(C4CC4)cc2)[C@@H]3c2c(F)cc(/C=C/C(=O)O)cc2F)cn1 [Example 32]
–	5.42 nM	Cc1ccc(N2[C@H](c3ccc(/C=C/C(=O)O)cc3)c3ccc(-c4cnn(C)c4)cc3C[C@H]2C)cc1 [Example 34]
1.03 nM	1 nM	Cc1ncc(-c2ccc3c(c2)CC(C)N(c2ccc(C4CC4)cc2)C3c2ccc(/C=C/C(=O)O)cc2)s1 [Example 35, (E)-3-(4-((1R,3R/1S,3S)-2-(4-Cyclopropylphenyl)-3-methyl-6-(2-methylthiazol-5-yl)-1,2,3,4-tetrahydroisoquinolin-1-yl)phenyl)acrylic acid]
–	8.08 nM	CC1Cc2cc(-c3cnn(C)c3)ccc2C(c2ccc(/C=C/C(=O)O)cc2)N1c1ccc(C(C)(C)C)cc1 [Example 41, (E)-3-(4-((1R,3R/1S,3S)-2-(4-(tert-Butyl)phenyl)-3-methyl-6-(1-methyl-1H-pyrazol-4-yl)-1,2,3,4-tetrahydroisoquinolin-1-yl)phenyl)acrylic acid]
–	31.7 nM	CC1Cc2cc(-c3cnn(C)c3)ccc2C(c2ccc(/C=C/C(=O)O)cc2)N1c1ccc(CC(F)(F)F)cc1 [Example 43, (E)-3-(4-((1R,3R/1S,3S)-3-Methyl-6-(1-methyl-1H-pyrazol-4-yl)-2-(4-(2,2,2-trifluoroethyl)phenyl)-1,2,3,4-tetrahydroisoquinolin-1-yl)phenyl)acrylic acid]
–	7.57 nM	CCOc1ccc(N2C(C)Cc3cc(-c4cnn(C)c4)ccc3C2c2ccc(/C=C/C(=O)O)cc2)cc1 [Example 44, (E)-3-(4-((1R,3R/1S,3S)-2-(4-Ethoxyphenyl)-3-methyl-6-(1-methyl-1H-pyrazol-4-yl)-1,2,3,4-tetrahydroisoquinolin-1-yl)phenyl)acrylic acid]
–	4.06 nM	CCc1ccc(N2C(C)Cc3cc(-c4cnn(C)c4)ccc3C2c2ccc(/C=C/C(=O)O)cc2)c(CC)c1 [Example 45, (E)-3-(4-((1R,3R/1S,3S)-2-(2,4-Diethylphenyl)-3-methyl-6-(1-methyl-1H-pyrazol-4-yl)-1,2,3,4-tetrahydroisoquinolin-1-yl)phenyl)acrylic acid]

From patent US10398689B2, “Benzopiperidine derivative, preparation method thereof and medical use thereof” (Jiangsu Hengrui Medicine Co., Ltd., priority 2015, dated 2019)
